Laboratory results published in patent publication US20260364213A1, “RADIOLABELED COMPOUNDS OF TRIMETHOPRIM AND USES THEREOF” (THE TRUSTEES OF THE UNIVERSITY OF PENNSYLVANIA, priority 2023, published 2026).
Like-named read-outs stand apart in the source and are kept apart here.

Key:
OVCAR8-eDHFR-Luc cells = test: Kill assay (MTT) in OVCAR8-eDHFR-Luc cells; format: cell-based, human
Method: (§1) Following the same uptake protocol till washing after the third wash the cells were counted using cell counter and they were diluted to generate even number of cells/mL. […] We've applied the same blocked conditions used in the uptake assay. […] Then cells will be re-distributed into 96 well plates (2,000 cells/well) with fresh media to monitor cell proliferation by MTT assay on days 1, 3, 7 and 10. A total of 9 wells (3×3) were measured on the plate per sample per time point. To complete the assay cell media was removed and replaced with 50 μL of serum free media and 50 μL of MTT reagent. The plates were covered with tin foil and incubated at 37 °C for 3 hours. The plates were shaken at 200 rpm at 37 °C for 15 min. Using the microplate plate reader, sample absorbance was measured at 590 nm for 600 ms. Controls included [^131I]NaI treated cells and blocking with 10 μM parent TMP (unlabeled). An analogous procedure was used for the OVCAR8-eDHFR-Luc kill assay with different doses (1.85-37 MBq) and treatment times.
To investigate the therapeutic potential of m[^131I]mI-TMP 5b in tumor cell lines, OVCAR8 eDHFR+ cells were exposed to varying doses (ranging from 1.85-37 MBq) of the radiotracer of 5b at different incubation times. Different conditions were employed to assess the selective therapeutic effect of the radio tracer on eDHFR+ cells. To determine the specific killing of eDHFR+ tumor cells, blocked conditions were analyzed. The cell viability of compound 5b-treated cells was also compared with the cells exposed to [^131I]I—Na. Additionally, untreated cells were used as controls. The MTT assay was used to measure the cell viability of the cells under the aforementioned conditions on days 1, 3, 7, and 12.
OVCAR8-eDHFR-Luc+ cells were treated with 1.85 and 18.5 MBq of m[^131I]mI-TMP 5b and [^131I]I—Na, incubated for 1 hour. […] The cell viability of the compound 5b-treated cells was similar to cells under blocked, [^131I]NaI, and no drug conditions. See, FIG. 2A. […] See, FIG. 2B. Based on the results obtained, a continued dose escalation was considered to better understand the therapeutic window. Finally, OVCAR_eDHFR+ cells were tested with 37 MBq dose of m[^131I]mI-TMP.

HCT116 eDHFR-Luc cells = test: Kill assay (MTT) in HCT116 eDHFR-Luc cells; format: cell-based, human; settings: 3.7 MBq; for cell growth at day 10: in comparison to blocked conditions
Method: as §1
Despite lower uptake in HCT116 cells, cell viability was measured on days 1, 3, 7, and 10 using the MTT assay and compared with blocked, no drug and [^131I]I—Na treated cells. […] See, FIG. 3A. […] See, FIG. 3B.

eDHFR [1] = molecular target: T1, eDHFR (Escherichia coli, UniProt P0ABQ4)
T1 sequence (P0ABQ4 1-159): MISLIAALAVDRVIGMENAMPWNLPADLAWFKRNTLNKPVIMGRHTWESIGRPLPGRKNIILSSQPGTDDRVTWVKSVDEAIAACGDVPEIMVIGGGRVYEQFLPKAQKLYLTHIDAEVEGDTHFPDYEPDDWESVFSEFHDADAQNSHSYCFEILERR

eDHFR [2] = molecular target: T1, eDHFR; format: cell-based; parameters: in CAR T cells fused to C-terminus of CD3zeta of FAP-CAR; settings: for uptake in eDHFR+ CAR T cells compared to NTD cells: 0.074 MBq, 60 min at 37 °C, FAP-CAR-eDHFR (DF-BFP), day 8 of T cell expansion, 60 min
Method: Primary human T cells were sourced from healthy volunteers through the Human Immunology Core at the University of Pennsylvania. All specimens were obtained following institutional review board-approved protocols and informed consent from the volunteers. Bulk T cells were activated and expanded following established methods and subsequently, either pTRPE-FAP CAR-eDHFR DF or pTRPE-FAP CAR-eDHFR DF-T2A-BFP (7) lentivirus was introduced to the activated T cells 16 hours post-activation at a multiplicity of infection (MOI) of 5. The T cells were then expanded for a period of 10 days. Transduced CAR T cells were incubated with Alexa Fluor 647 AffiniPure F(ab′2) fragment goat anti-mouse immunoglobulin G (Jackson ImmunoResearch Laboratories) for half an hour at room temperature. Following incubation, stained cells were washed 3*100 μL with FACS buffer (2% bovine serum albumin in PBS, Invitrogen). The washed cells were analyzed using a flow cytometer (LSR II, BD Biosciences) to detect CAR and/or BFP expression. FlowJo software was used to analyze the flow data.
Next, the uptake radio-iodinated probe 5b was evaluated in primary human CAR-T cells. CAR-T cells were engineered to express eDHFR which is fused directly to the C-terminus of the signaling CD3zeta domain of the fibroblast activation protein (FAP) CAR. […] After incubation, the cells were centrifuged at 1200 rpm and were washed thrice with cold PBS (Corning). Subsequently, the cell pellet was resuspended in 1% DMSO/PBS and divided into 3 technical replicates of 100 μL each. The uptake of radiotracer was quantified using a gamma counter (PerkinElmer). The final uptake was expressed as a ratio of % ID normalized per […] cells (% ID/million cells). An about 15 fold more uptake in eDHFR+ cells was observed as compared to NTD cells. See, FIGS. 6A and 6B. The specificity is further assessed by comparing with FAP_CAR_eDHFR(df) which has low eDHFR expression. Less uptake of radiotracer 5b was observed as compared to high expressing eDHFR FAP_CARs.
[^131I]I-TMP in CAR T cells. […] In this case, two different fibroblast activation protein (FAP) CAR T cell constructs that express eDHFR fused directly to the C-terminus of the signaling CD3zeta domain of the CAR were used (7) (FIGS. 13F and 13G). […] There was ~15-fold more uptake in FAP-CAR-eDHFR-DF-BFP in comparison to NTD cells at day 8 of T cell expansion (FIG. 13A).

Row | SMILES | cytotoxic effect / cell viability (OVCAR8-eDHFR-Luc cells; 1.85 MBq, 1 hour) | cell viability under blocked conditions (OVCAR8-eDHFR-Luc cells; 18.5 MBq, 1 h, cells treated with the blocking agent (10 μM TMP)) | cytotoxic effect / cell viability (OVCAR8-eDHFR-Luc cells; 18.5 MBq, 1 h, viability to day 12) | cytotoxic effect (HCT116 eDHFR-Luc cells; 2 hours incubation) | cell viability at day 7 (HCT116 eDHFR-Luc cells; 4 hours incubation) | cytotoxic effect (HCT116 eDHFR-Luc cells; 4 hours incubation, compared to blocked cells) | cell growth at day 10 (HCT116 eDHFR-Luc cells; 4 hours incubation) | uptake under blocked conditions (eDHFR [1]; OVCAR8 eDHFR cells preincubated with excess of TMP) | retention in washout study (eDHFR [2]; FAP_CAR_eDHFR cells, after 5 h) | uptake in FAP_CAR_eDHFR(df) with low eDHFR expression (eDHFR [2]; compared to high expressing eDHFR FAP_CARs) | cytotoxic effect (OVCAR8-eDHFR-Luc cells; 37 MBq, also with 20 minutes incubation, blocked cells behaved the same) | tracer uptake in eDHFR+ cells compared to WT cells (eDHFR [1]; OVCAR8-eDHFR-Luc vs OVCAR8 WT, 0.037 MBq, 1 hour) | uptake in eDHFR+ CAR T cells compared to NTD cells (eDHFR [2]) | uptake in eDHFR+ CAR T cells compared to NTD cells (eDHFR [2]; listed as [^131I]I-TMP) | uptake in CAR T cells, earlier day of expansion (eDHFR [2]; earlier day of expansion (day 5))
1 | COc1cc(Cc2cnc(N)nc2N)cc(I)c1OC [[^131I]mI-TMP, 5-(3-iodo-4,5-dimethoxybenzyl)pyrimidine-2,4-diamine] | did not exhibit any cytotoxic effects/decreased viability | comparable viability to those under no treatment or [^131I]I—Na conditions | strong cytotoxic effects, and thus no cell regrowth/significantly lower viability was observed at day 7 and even at day 12 | did not exhibit any cytotoxic effect | did not show any viability on day 7 | demonstrated a cytotoxic effect | mild growth at day 10 | reduced uptake | strong internalization of compound 5b even after 5 h | Less uptake | – | – | – | – | –
2 | COc1cc(Cc2cnc(N)nc2N)cc([131I])c1OC [[^131I]mI-TMP, 5-(3-iodo-4,5-dimethoxybenzyl)pyrimidine-2,4-diamine] | – | – | – | – | no cell regrowth at day 7 | – | mild regrowth was observed at day 10 and beyond | – | – | – | non-specific cell killing | ~ 25 fold | about 15 fold | ~ 15 fold | ~ 3 fold
